Measured values published in patent US5023236A, “Factor VII/VIIA active site inhibitors” (Corvas, Inc., priority 1989, dated 1991).
Non-standard residues stand in square brackets, D forms with d. Residues, ends and D or L forms follow the SMILES beside them. *: point of attachment. Dansyl = CN(C)c1cccc2c(S(=O)(=O)*)cccc12; Tos = Cc1ccc(S(=O)(=O)*)cc1; CH2Cl = ClC*

Key:
[1] = target: T1, factor VII/VIIa in the binary complex with tissue factor (Homo sapiens, UniProt P08709); assay: linked enzyme chromogenic assay of factor X activation (S2222) with factor VII and TF positive J82 cells; format: biochemical; conditions: for Relative potency Ki 5 (MU): P3 side chain of peptide P3-Thr-Arg, one unit = inverse of the molar concentration at 5% inhibition of factor X activation; for Peptide (Ki 5): free peptide; for Peptide (Ki 5) / Peptidyl-CMK (Ki 5): inverse of molar concentration at 5% inhibition of factor X activation; for inhibitory activity (in words): peptides with R3 side chain on threonyl-arginine; for Ki 5: peptidyl chloromethyl ketones, Table 3; for Peptidyl-CMK (Ki 5): chloromethyl ketone analogue; for IC50: concentration required for 50% inhibition of the rate of factor X activation, column beside Peptidyl-CMK, read-out: Ki 50 (the source's name)
T1 construct: purified human factor VII (1 nM), purified as described by Fair, D; from tissue; TF endogenous on J82 cells (ATCC HTB1)
Description: Relative potency is expressed as megaunits (MU), where one unit is equal
to the inverse of the molar concentration at 5% inhibition of factor X
activation. Quantitation of inhibition of factor VII/VIIa in the binary
complex with tissue factor was performed in a linked enzyme chromogenic
assay using factor X, purified as described by Schwartz, B. S. et al.
(1981) J. Clin. Invest. 67:1650, and the chromogenic substrate S2222
(Helena Labs, Beaumont, Texa s). Briefly, the peptides were preincubated
with purified human factor VII (1 nM), purified as described by Fair, D.
incubation at room temperature 25 μl of 20 mM CaCl2, 1 ×
10^5 TF positive human bladder carcinoma derived J82 cells (available
from American Type Culture Collection, Rockville, Maryland, under
Accession No. ATCC HTB1), 25 μl of purified human factor human factor
(100 .eta.M) in 50 μl of TRIS buffered saline and 50 μl of 2 mM
S2222 was added. The use of J82 cells is an important feature of these in
vitro assays because they produce significant levels of TF for the
formation of active TF:VII/VIIa. The rate of conversion of factor X to Xa
was monitored kinetically by determination of the chromogenic product of
Inhibition by the compounds of this invention of the proteolytic activity of [TF:VII/VIIa] on factor X was analyzed by a chromogenic assay in which the substrate S-2222 is cleaved by the generated factor Xa. […] Analyses included the absence of effect of all such compounds on factor Xa, an enzyme closely homologous to factor VII and VIIa. […]

[TF:VII/VIIa] complex = target: T2, [TF:VII/VIIa] complex (Homo sapiens, UniProt P08709); assay: clotting inhibition of normal human plasma with J82 cells; format: biochemical
T2 construct: from tissue; host or cells: normal human plasma (factor VII); J82 cells (endogenous TF)
Description: Normal human plasma was diluted 1:3 by volume with 0.02 M Na Citrate, 0.14M NaCl pH 7.4 in a glass tube. Diluted plasma (100μl) was then mixed with 100μl of J82 cells at 1×10^6 cells/ml and 100 μl of inhibitor. Plasma clotting times were obtained by visual observation of initial turbidity following addition of 100 μl of 20 mM calcium chloride. Human plasma clotting times were also expressed as calculated milli-units of TF activity (assuming no inhibitor present).

T1 sequence (P08709 213-466 limits assumed): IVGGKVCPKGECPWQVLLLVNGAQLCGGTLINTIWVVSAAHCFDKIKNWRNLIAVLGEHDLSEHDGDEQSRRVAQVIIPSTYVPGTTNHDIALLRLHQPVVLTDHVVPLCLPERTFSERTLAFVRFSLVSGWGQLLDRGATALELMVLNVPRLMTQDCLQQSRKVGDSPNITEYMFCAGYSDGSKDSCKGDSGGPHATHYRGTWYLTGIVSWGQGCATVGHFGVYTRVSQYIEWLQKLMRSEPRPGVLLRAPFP
T1 sequence (P08709 61-212 partner limits assumed): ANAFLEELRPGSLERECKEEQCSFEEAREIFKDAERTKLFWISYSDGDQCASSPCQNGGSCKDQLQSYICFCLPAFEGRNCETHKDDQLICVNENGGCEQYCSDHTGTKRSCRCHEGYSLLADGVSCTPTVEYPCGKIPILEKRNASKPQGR
T1 sequence (P13726 33-295 partner): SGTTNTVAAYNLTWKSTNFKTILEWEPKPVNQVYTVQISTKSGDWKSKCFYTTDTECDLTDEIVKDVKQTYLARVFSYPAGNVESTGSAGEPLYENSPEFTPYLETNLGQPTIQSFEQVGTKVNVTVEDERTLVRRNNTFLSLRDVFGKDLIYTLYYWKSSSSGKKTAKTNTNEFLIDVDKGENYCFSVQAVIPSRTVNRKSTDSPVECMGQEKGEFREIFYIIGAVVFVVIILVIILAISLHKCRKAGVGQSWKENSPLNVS
T2 sequence (P08709 213-466 limits assumed): as the sequence (P08709 213-466 limits assumed) above
T2 sequence (P08709 61-212 partner limits assumed): as the sequence (P08709 61-212 partner limits assumed) above
T2 sequence (P13726 33-295 partner): as the sequence (P13726 33-295 partner) above

Row | inhibitory activity (in words) [1] | Ki 5 [1] [MU] | SMILES | further results
1 | – | – | C[C@@H](O)[C@H](NC(=O)[C@@H](N)CC(N)=O)C(=O)N[C@@H](CCCNC(=N)N)C(=O)O [Example 1, H-L-Asn-L-Thr-L-Arg] (H-Asn-Thr-Arg-OH) | Relative potency Ki 5 (MU) [1]: 6.7 MU
2 | – | – | C[C@@H](O)[C@H](NC(=O)[C@@H](N)CC(=O)O)C(=O)N[C@@H](CCCNC(=N)N)C(=O)O [Example 2, H-L-Asp-L-Thr-L-Arg] (H-Asp-Thr-Arg-OH) | Relative potency Ki 5 (MU) [1]: 4.8 MU
3 | – | – | C[C@@H](O)[C@H](NC(=O)[C@@H](N)Cc1c[nH]cn1)C(=O)N[C@@H](CCCNC(=N)N)C(=O)O [Example 3, H-L-His-L-Thr-L-Arg] (H-His-Thr-Arg-OH) | Relative potency Ki 5 (MU) [1]: 6.2 MU; Peptide (Ki 5) [1]: 6.2 MU
4 | – | – | CC(C)C[C@H](N)C(=O)N[C@H](C(=O)N[C@@H](CCCNC(=N)N)C(=O)O)[C@@H](C)O [Example 4, H-L-Leu-L-Thr-L-Arg] (H-Leu-Thr-Arg-OH) | Relative potency Ki 5 (MU) [1]: 4.5 MU; Peptide (Ki 5) [1]: 4.5 MU
5 | – | – | C[C@@H](O)[C@H](N)C(=O)N[C@H](C(=O)N[C@@H](CCCNC(=N)N)C(=O)O)[C@@H](C)O [Example 5, H-L-Thr-L-Thr-L-Arg] (H-Thr-Thr-Arg-OH) | Relative potency Ki 5 (MU) [1]: 2.6 MU
6 | – | – | C[C@@H](O)[C@H](NC(=O)[C@@H](N)CCC(N)=O)C(=O)N[C@@H](CCCNC(=N)N)C(=O)O [Example 6, H-L-Gln-L-Thr-L-Arg] (H-Gln-Thr-Arg-OH) | Relative potency Ki 5 (MU) [1]: 2.5 MU
7 | slight activity | – | C[C@@H](O)[C@H](N)C(=O)N[C@@H](CCCNC(=N)N)C(=O)O [Example 7, H-L-Thr-L-Arg] (H-Thr-Arg-OH) | Relative potency Ki 5 (MU) [1]: 2.0 MU
8 | – | 44 | C[C@@H](O)[C@H](NC(=O)[C@@H](N)CC(N)=O)C(=O)N[C@@H](CCCNC(=N)N)C(=O)CCl [Example 8, H-L-Asn-L-Thr-L-Arg-CMK] (H-Asn-Thr-Arg-CH2Cl) | –
9 | – | 60 | C[C@@H](O)[C@H](NC(=O)[C@@H](N)CC(=O)O)C(=O)N[C@@H](CCCNC(=N)N)C(=O)CCl [Example 9, H-L-Asp-L-Thr-L-Arg-CMK] (H-Asp-Thr-Arg-CH2Cl) | –
10 | – | 54 | C[C@@H](O)[C@H](NC(=O)[C@@H](N)Cc1c[nH]cn1)C(=O)N[C@@H](CCCNC(=N)N)C(=O)CCl [Example 10, H-L-His-L-Thr-L-Arg-CMK] (H-His-Thr-Arg-CH2Cl) | Peptidyl-CMK (Ki 5) [1]: 54.0 MU; IC50 [1]: 120 µM
11 | – | 68 | CC(C)C[C@H](N)C(=O)N[C@H](C(=O)N[C@@H](CCCNC(=N)N)C(=O)CCl)[C@@H](C)O [Example 11, H-L-Leu-L-Thr-L-Arg-CMK] (H-Leu-Thr-Arg-CH2Cl) | Peptidyl-CMK (Ki 5) [1]: 67.5 MU; IC50 [1]: 95 µM; inhibition at 3 µM ([TF:VII/VIIa] complex; LTR-CMK final conc 3 μM): 5.3%; inhibition at 30 µM ([TF:VII/VIIa] complex; LTR-CMK final conc 30 μM): 41%; inhibition at 300 µM ([TF:VII/VIIa] complex; LTR-CMK final conc 300 μM): 75%
12 | – | 100 | CC(C)C[C@@H](N)C(=O)N[C@H](C(=O)N[C@@H](CCCNC(=N)N)C(=O)CCl)[C@@H](C)O [Example 15, H-D-Leu-L-Thr-L-Arg-CMK] (H-[dL]-Thr-Arg-CH2Cl) | –
13 | – | 42 | C[C@@H](O)[C@H](NC(=O)[C@H](N)Cc1ccccc1)C(=O)N[C@@H](CCCNC(=N)N)C(=O)CCl [Example 16, H-D-Phe-L-Thr-L-Arg-CMK] (H-[dF]-Thr-Arg-CH2Cl) | –
14 | – | 60 | CC(=O)N[C@@H](CC(C)C)C(=O)N[C@H](C(=O)N[C@@H](CCCNC(=N)N)C(=O)CCl)[C@@H](C)O [Example 17, Ac-L-Leu-L-Thr-L-Arg-CMK] (Ac-Leu-Thr-Arg-CH2Cl) | –
15 | – | 60 | Cc1ccc(S(=O)(=O)N[C@@H](CC(C)C)C(=O)N[C@H](C(=O)N[C@@H](CCCNC(=N)N)C(=O)CCl)[C@@H](C)O)cc1 [Example 18, Tosyl-L-Leu-L-Thr-L-Arg-CMK] (Tos-Leu-Thr-Arg-CH2Cl) | –
16 | – | 35 | CC(C)C[C@H](NS(=O)(=O)c1cccc2c(N(C)C)cccc12)C(=O)N[C@H](C(=O)N[C@@H](CCCNC(=N)N)C(=O)CCl)[C@@H](C)O [Example 19, Dansyl-L-Leu-L-Thr-L-Arg-CMK] (Dansyl-Leu-Thr-Arg-CH2Cl) | –
17 | – | 60 | CC(C)C[C@H](N)C(=O)N[C@@H](CO)C(=O)N[C@@H](CCCNC(=N)N)C(=O)CCl [Example 20, H-L-Leu-L-Ser-L-Arg-CMK] (H-Leu-Ser-Arg-CH2Cl) | –
18 | – | 60 | CC(C)C[C@H](N)C(=O)N1CCC[C@H]1C(=O)N[C@@H](CCCNC(=N)N)C(=O)CCl [Example 21, H-L-Leu-L-Pro-L-Arg-CMK] (H-Leu-Pro-Arg-CH2Cl) | –
19 | – | 60 | N=C(N)NCCC[C@H](NC(=O)[C@H](CO)NC(=O)[C@@H](N)CC(N)=O)C(=O)CCl [Example 22, H-L-Asn-L-Ser-L-Arg-CMK] (H-Asn-Ser-Arg-CH2Cl) | –
20 | inactive | – | C[C@@H](O)[C@H](NC(=O)[C@@H](N)CCC(=O)O)C(=O)N[C@@H](CCCNC(=N)N)C(=O)O [glutamyl] (H-Glu-Thr-Arg-OH) | –
21 | inactive | – | C[C@@H](O)[C@H](NC(=O)CN)C(=O)N[C@@H](CCCNC(=N)N)C(=O)O [glycyl] (H-Gly-Thr-Arg-OH) | –
22 | inactive | – | CC[C@H](C)[C@H](N)C(=O)N[C@H](C(=O)N[C@@H](CCCNC(=N)N)C(=O)O)[C@@H](C)O [isoleucyl] (H-Ile-Thr-Arg-OH) | –
23 | inactive | – | CSCC[C@H](N)C(=O)N[C@H](C(=O)N[C@@H](CCCNC(=N)N)C(=O)O)[C@@H](C)O [methionyl] (H-Met-Thr-Arg-OH) | –
24 | inactive | – | C[C@@H](O)[C@H](NC(=O)[C@@H](N)Cc1ccccc1)C(=O)N[C@@H](CCCNC(=N)N)C(=O)O [phenylalanyl] (H-Phe-Thr-Arg-OH) | –
25 | inactive | – | C[C@@H](O)[C@H](NC(=O)[C@@H]1CCCN1)C(=O)N[C@@H](CCCNC(=N)N)C(=O)O [prolyl] (H-Pro-Thr-Arg-OH) | –
26 | inactive | – | C[C@@H](O)[C@H](NC(=O)[C@@H](N)CO)C(=O)N[C@@H](CCCNC(=N)N)C(=O)O [seryl] (H-Ser-Thr-Arg-OH) | –
27 | inactive | – | C[C@@H](O)[C@H](NC(=O)[C@@H](N)Cc1c[nH]c2ccccc12)C(=O)N[C@@H](CCCNC(=N)N)C(=O)O [tryptophanyl] (H-Trp-Thr-Arg-OH) | –
28 | inactive | – | CC(C)[C@H](N)C(=O)N[C@H](C(=O)N[C@@H](CCCNC(=N)N)C(=O)O)[C@@H](C)O [valyl] (H-Val-Thr-Arg-OH) | –

Row | SMILES | inhibitory activity (in words) [1] | Ki 5 [1] [MU] | further results
29 | C[C@@H](O)[C@H](NC(=O)[C@@H](N)Cc1ccc(O)cc1)C(=O)N[C@@H](CCCNC(=N)N)C(=O)O [tyrosyl] (H-Tyr-Thr-Arg-OH) | inactive | – | –
